Target: Human factor D (Homo sapiens (Human), UniProt P00746)
Assay: Human Factor D Assay
Assay type: biochemical
Conditions: human factor D 80 nM, substrate Z-L-Lys-SBzl, DTNB, OD405
Procedure, shortened: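 Serum-purified human factor D (80 nM final) preincubated with compound 5 min at room temperature in 50 mM Tris, 1M NaCl, pH 7.5. Z-L-Lys-SBzl and DTNB added at 10 μM final each; OD405 followed kinetically over 30 min. IC50 by non-linear regression of percent inhibition.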

Human factor D, sequence (P00746 26-253): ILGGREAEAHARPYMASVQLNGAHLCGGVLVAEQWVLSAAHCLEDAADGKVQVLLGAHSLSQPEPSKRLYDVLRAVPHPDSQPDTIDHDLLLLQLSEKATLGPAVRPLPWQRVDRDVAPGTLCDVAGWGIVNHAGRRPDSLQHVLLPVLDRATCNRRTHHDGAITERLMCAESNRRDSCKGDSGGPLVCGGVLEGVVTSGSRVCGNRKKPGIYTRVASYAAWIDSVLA

| Compound | IC50 [nM] |
| --- | --- |
| CC(=O)c1cn(CC(=O)N2C[C@H](F)C[C@H]2C(=O)Nc2cccc(Br)n2)c2ccc(C3(NC(=O)OC(C)(C)C)CC3)cc12 [Compound 123, tert-butyl 1-(3-acetyl-1-(2-((2S,4R)-2-(6-bromopyridin-2-ylcarbamoyl)-4-fluoropyrrolidin-1-yl)-2-oxoethyl)-1H-indol-5-yl)cyclopropylcarbamate] | < 1000 |
| CC(=O)c1cn(CC(=O)N2C[C@H](F)C[C@H]2C(=O)Nc2cccc(-c3ccccc3Cl)c2F)c2c(C#Cc3ncc(F)cn3)cccc12 [Compound 124, (2S,4R)-1-(2-(3-acetyl-7-((5-fluoropyrimidin-2-yl)ethynyl)-1H-indol-1-yl)acetyl)-N-(2′-chloro-2-fluorobiphenyl-3-yl)-4-fluoropyrrolidine-2-carboxamide] | < 1000 |
